Measurements published in patent US20230348475A1, “IMIDAZOPYRIDAZINE AND IMIDAZOPYRAZINE COMPOUNDS AS INHIBITORS OF CDK7” (THE TRANSLATIONAL GENOMICS RESEARCH INSTITUTE, priority 2020, published 2023).
Counter-ions that a name gives are not always drawn. Like-named read-outs stand apart in the source and are kept apart here.

Assays:
[1] = molecular target: CDK7/CycH/MAT1 (Homo sapiens, UniProt P50613); assay: Kinase Glo (ADP-Glo) biochemical assay, CDK7; conditions: CDK7/CycH/MAT1 40 ng, ATP 1 μM, 60 minutes at RT, luminescence
Sequence of CDK7/CycH/MAT1 (P50613 whole entry): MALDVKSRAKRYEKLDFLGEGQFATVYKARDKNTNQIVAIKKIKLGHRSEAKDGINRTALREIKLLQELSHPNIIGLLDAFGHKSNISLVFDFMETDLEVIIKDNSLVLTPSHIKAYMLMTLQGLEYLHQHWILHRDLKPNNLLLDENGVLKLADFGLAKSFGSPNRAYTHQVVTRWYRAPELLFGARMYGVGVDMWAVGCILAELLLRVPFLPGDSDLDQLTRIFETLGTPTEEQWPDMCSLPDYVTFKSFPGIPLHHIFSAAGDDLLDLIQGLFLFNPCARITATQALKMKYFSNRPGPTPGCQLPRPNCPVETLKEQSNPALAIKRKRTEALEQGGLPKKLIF
Sequence of CDK7/CycH/MAT1 (P51946 whole entry partner): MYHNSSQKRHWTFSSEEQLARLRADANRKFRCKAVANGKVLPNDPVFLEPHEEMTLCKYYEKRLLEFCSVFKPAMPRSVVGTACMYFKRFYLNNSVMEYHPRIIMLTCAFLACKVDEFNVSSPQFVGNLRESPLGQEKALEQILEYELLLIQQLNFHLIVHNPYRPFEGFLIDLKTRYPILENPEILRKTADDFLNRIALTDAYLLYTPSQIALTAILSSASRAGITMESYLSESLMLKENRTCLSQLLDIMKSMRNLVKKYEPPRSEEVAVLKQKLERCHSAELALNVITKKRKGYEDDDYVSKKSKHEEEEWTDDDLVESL
Sequence of CDK7/CycH/MAT1 (P51948 whole entry partner): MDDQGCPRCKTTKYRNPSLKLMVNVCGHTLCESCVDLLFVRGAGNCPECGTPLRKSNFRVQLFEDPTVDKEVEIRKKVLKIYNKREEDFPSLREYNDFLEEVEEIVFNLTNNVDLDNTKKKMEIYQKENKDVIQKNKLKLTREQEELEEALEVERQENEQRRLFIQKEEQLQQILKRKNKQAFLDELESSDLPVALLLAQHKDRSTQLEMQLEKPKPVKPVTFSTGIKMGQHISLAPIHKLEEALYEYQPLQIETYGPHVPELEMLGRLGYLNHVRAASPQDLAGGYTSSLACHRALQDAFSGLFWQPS
How it was run: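 Enzyme (40 ng), RB-CTF peptide substrate (200 ng or 400 ng) and 1 μM ATP reacted in HEPES pH 7.5 buffer with MgCl2, MnCl2, DTT and Na3VO4 for 60 min at RT. Ten-point compound dilutions were tested from 30 μM final. ADP formed was read by ADP-Glo luminescence.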

[2] = system: MiaPaCa2 pancreatic cancer cell line; assay: Cell viability assay (Cell Titer Glo), MiaPaCa2; format: cell-based; conditions: Homo sapiens, MIA PaCa-2, 72 hour incubation
Description: (§1) Materials: • Cell Lines (Treated according to ATCC guidelines) • Cell Titer Glo (Promega Cat #G7572) • DMSO • 96-well White Tissue Culture Treated Plates (Perkin Elmer Cat #60005680)
(§2) Cells were seeded in a white 96-well tissue culture treated plate at a density of 1500 cells in 90 μL of media per well and allowed to settle overnight. A ten point serial dilution of drugs was prepared at 10×concentration in media with the final assay concentrations starting at 30 μM, 10 μM, 3 μM, 1 μM, 0.3 μM . . . 0 μM. A dilution of DMSO was included as a control. The assay was set up by adding 10 μL of the corresponding drug to each well in duplicate, followed by a 72 hour incubation at 37° C., 5% CO2. Cell viability was quantified by adding 90 μL of Cell Titer Glo to each well and incubating at room temperature for 10 minutes. The reaction was quantified by measuring luminescence using the Envision Plate Reader. Data was analyzed using Graphpad Prism 7 software.

[3] = system: HPAC pancreatic cancer cell line; assay: Cell viability assay (Cell Titer Glo), HPAC; format: cell-based; conditions: Homo sapiens, HPAC, 72 hour incubation
Description: as §1, §2

[4] = system: Kasumi1 leukemia cancer cell line; assay: Cell viability assay (Cell Titer Glo), Kasumi1; format: cell-based; conditions: Homo sapiens, Kasumi 1, Table 7a, 72 hour incubation
Description: as §1, §2

[5] = system: MDA-MB-231 breast cancer cell line; assay: Cell viability assay (Cell Titer Glo), MDA-MB-231; format: cell-based; conditions: Homo sapiens, MDA-MB-231, 72 hour incubation
Description: as §1, §2

[6] = system: A2780 ovarian cancer cell line; assay: Cell viability assay (Cell Titer Glo), A2780; format: cell-based; conditions: Homo sapiens, A2780, Table 7a, 72 hour incubation
Description: as §1, §2

[7] = system: A673 Ewingsarcoma cell line; assay: Cell viability assay (Cell Titer Glo), A673; format: cell-based; conditions: Homo sapiens, A673, Table 7a, 72 hour incubation
Description: as §1, §2

[8] = system: MDA-MB436 cells; assay: Cell viability assay (Cell Titer Glo), MDA-MB436; format: cell-based; conditions: Homo sapiens, MDA-MB-436; Table 7b; 72 hour incubation
Description: as §2, with “Cell Viability Assay Materials: • Cell Lines (Treated according to ATCC guidelines) • Cell Titer Glo (Promega Cat #G7572) • DMSO • 96-well White Tissue Culture Treated Plates (Perkin Elmer Cat #60005680) Method: Cells” for “Cells”, “μ[…]” for “μM, 10 μM, 3 μM, 1 μM, 0.3 μM . . . 0 μM. A”

[9] = system: MDA-MB468 cells; assay: Cell viability assay (Cell Titer Glo), MDA-MB468; format: cell-based; conditions: Homo sapiens, MDA-MB-468; Table 7b; 72 hour incubation
Description: as §2, with “Cell Viability Assay Materials: • Cell Lines (Treated according to ATCC guidelines) • Cell Titer Glo (Promega Cat #G7572) • DMSO • 96-well White Tissue Culture Treated Plates (Perkin Elmer Cat #60005680) Method: Cells” for “Cells”, “μ[…]” for “μM, 10 μM, 3 μM, 1 μM, 0.3 μM . . . 0 μM. A”

[10] = Table 7a, pancreatic cancer cell line

| IC50 [1] | IC50 [2, 10] | IC50 [3, 10] | IC50 [4] | IC50 ([5]; Table 7a, breast cancer cell line) | IC50 [6] | IC50 [7] | IC50 ([2]; Table 7b, read-out: IC50 MIA PaCa2) | IC50 ([3]; Table 7b) | IC50 ([5]; Table 7b, read-out: IC50 MDA-MB231) | IC50 [8] | IC50 [9] | SMILES |
| --- | --- | --- | --- | --- | --- | --- | --- | --- | --- | --- | --- | --- |
| < 100 nM | 1 to 5 µM | 1 to 5 µM | > 5 µM | 1 to 5 µM | 1 to 5 µM | 1 to 5 µM | – | – | – | – | – | CC(C)c1cnc2c(NCc3ccccc3OC(F)(F)F)cc(NC[C@H]3CNCCO3)nn12 [Compound 48, (R)-3-isopropyl-N6-(morpholin-2-ylmethyl)-N8-(2-(trifluoromethoxy)benzyl)imidazo[1,2-b]pyridazine-6,8-diamine hydrochloride] |
| < 100 nM | – | – | – | – | – | – | < 1 µM | 1 to 5 µM | 1 to 5 µM | 1 to 5 µM | 1 to 5 µM | Fc1cccc(Nc2cc(O[C@H]3CCCNC3)nn3c(C4CC4)cnc23)c1 [Compound I-1] |
